Experimental data: PubChem BioAssay (NCI)
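Exposure lasted 48 hours, with cells grown in 96-well plates and compounds tested at five concentrations. At the TGI there is no net growth.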

Legend:
Assay in all cases: NCI tumour cell line growth inhibition, 48 h
SK-OV-3 ovarian = test system: SK-OV-3 ovarian
SK-MEL-5 melanoma = test system: SK-MEL-5 melanoma
DLD-1 colon = test system: DLD-1 colon
HT29 colon = test system: HT29 colon
MOLT-4 leukemia = test system: MOLT-4 leukemia
TK-10 renal = test system: TK-10 renal
A549 NSCLC = test system: A549 NSCLC
UACC-62 melanoma = test system: UACC-62 melanoma
NCI-H226 lung = test system: NCI-H226 lung
DMS 273 small cell lung = test system: DMS 273 small cell lung
OVCAR-3 ovarian = test system: OVCAR-3 ovarian
SF-268 CNS = test system: SF-268 CNS
HCT-116 colon = test system: HCT-116 colon
COLO 205 colon = test system: COLO 205 colon
OVCAR-8 ovarian = test system: OVCAR-8 ovarian
SK-MEL-2 melanoma = test system: SK-MEL-2 melanoma
HCT-15 colon = test system: HCT-15 colon
NCI-H460 lung = test system: NCI-H460 lung
MALME-3M melanoma = test system: MALME-3M melanoma
EKVX NSCLC = test system: EKVX NSCLC
SNB-75 CNS = test system: SNB-75 CNS
ACHN renal = test system: ACHN renal
KM12 colon = test system: KM12 colon
M14 melanoma = test system: M14 melanoma
U251 CNS = test system: U251 CNS
CCRF-CEM leukemia = test system: CCRF-CEM leukemia
XF 498 CNS = test system: XF 498 CNS
HCC-2998 colon = test system: HCC-2998 colon
NCI-H522 lung = test system: NCI-H522 lung
RXF 393 renal = test system: RXF 393 renal
KM20L2 colon = test system: KM20L2 colon
SF-539 CNS = test system: SF-539 CNS
SNB-78 CNS = test system: SNB-78 CNS
NCI-H23 lung = test system: NCI-H23 lung
SNB-19 CNS = test system: SNB-19 CNS
OVCAR-4 ovarian = test system: OVCAR-4 ovarian
UO-31 renal = test system: UO-31 renal
IGROV1 ovarian = test system: IGROV1 ovarian
UACC-257 melanoma = test system: UACC-257 melanoma
M19-MEL melanoma = test system: M19-MEL melanoma
SR leukemia = test system: SR leukemia
HOP-62 NSCLC = test system: HOP-62 NSCLC
HOP-92 NSCLC = test system: HOP-92 NSCLC
786-0 renal = test system: 786-0 renal
SN12C renal = test system: SN12C renal
SF-295 CNS = test system: SF-295 CNS
SW-620 colon = test system: SW-620 colon
K-562 leukemia = test system: K-562 leukemia
SK-MEL-28 melanoma = test system: SK-MEL-28 melanoma
LXFL 529 NSCLC = test system: LXFL 529 NSCLC
HL-60(TB) leukemia = test system: HL-60(TB) leukemia
LOX IMVI melanoma = test system: LOX IMVI melanoma
DMS 114 small cell lung = test system: DMS 114 small cell lung
RPMI-8226 leukemia = test system: RPMI-8226 leukemia
A498 renal = test system: A498 renal

Work on `Cc1nc2c(n1CC(C)C)C(=O)c1ccccc1C2=O` yielded a TGI (SK-OV-3 ovarian) greater than 100 µM, a TGI (SK-MEL-5 melanoma) of 34.7 µM and a TGI (DLD-1 colon) greater than 100 µM. For the same compound, the TGI (HT29 colon) was greater than 100 µM, the TGI (MOLT-4 leukemia) was greater than 100 µM and the TGI (TK-10 renal) was greater than 100 µM. It also gave a TGI (A549 NSCLC) of 97.7 µM, a TGI (UACC-62 melanoma) of 50.5 µM and a TGI (NCI-H226 lung) greater than 100 µM. For the same compound, the TGI (DMS 273 small cell lung) was greater than 100 µM, the TGI (OVCAR-3 ovarian) was 82.1 µM and the TGI (SF-268 CNS) was greater than 100 µM. For the same compound, the TGI (HCT-116 colon) was 67.4 µM, the TGI (COLO 205 colon) was greater than 100 µM and the TGI (OVCAR-8 ovarian) was greater than 100 µM. The TGI (SK-MEL-2 melanoma) was 74.7 µM, the TGI (HCT-15 colon) was greater than 100 µM and the TGI (NCI-H460 lung) was 54.2 µM. The TGI (MALME-3M melanoma) was 40.6 µM, the TGI (EKVX NSCLC) was greater than 100 µM and the TGI (SNB-75 CNS) was greater than 100 µM. It also gave a TGI (ACHN renal) greater than 100 µM, a TGI (KM12 colon) greater than 100 µM and a TGI (M14 melanoma) greater than 100 µM. It also gave a TGI (U251 CNS) greater than 100 µM, a TGI (CCRF-CEM leukemia) greater than 100 µM and a TGI (XF 498 CNS) of 95.9 µM. For the same compound, the TGI (HCC-2998 colon) was greater than 100 µM, the TGI (NCI-H522 lung) was 76.5 µM and the TGI (RXF 393 renal) was greater than 100 µM. For the same compound, the TGI (KM20L2 colon) was greater than 100 µM, the TGI (SF-539 CNS) was 87.6 µM and the TGI (SNB-78 CNS) was greater than 100 µM. The TGI (NCI-H23 lung) was 49.2 µM, the TGI (SNB-19 CNS) was greater than 100 µM and the TGI (OVCAR-4 ovarian) was greater than 100 µM. It also gave a TGI (UO-31 renal) greater than 100 µM, a TGI (IGROV1 ovarian) greater than 100 µM and a TGI (UACC-257 melanoma) of 45.4 µM. The TGI (M19-MEL melanoma) was 29.6 µM, the TGI (SR leukemia) was greater than 100 µM and the TGI (HOP-62 NSCLC) was greater than 100 µM. It also gave a TGI (HOP-92 NSCLC) of 65.7 µM, a TGI (786-0 renal) greater than 100 µM and a TGI (SN12C renal) greater than 100 µM. The TGI (SF-295 CNS) was greater than 100 µM, the TGI (SW-620 colon) was greater than 100 µM and the TGI (K-562 leukemia) was greater than 100 µM. For the same compound, the TGI (SK-MEL-28 melanoma) was greater than 100 µM, the TGI (LXFL 529 NSCLC) was greater than 100 µM and the TGI (HL-60(TB) leukemia) was greater than 100 µM. For the same compound, the TGI (LOX IMVI melanoma) was greater than 100 µM.

Compound `CCOC(=O)C(C(CC(=O)OC)NC(=O)OCc1ccccc1)C1(C)OCCO1` (stereo unspecified) has a TGI (SK-MEL-5 melanoma) greater than 100 µM, a TGI (DLD-1 colon) greater than 100 µM and a TGI (HT29 colon) greater than 100 µM. The TGI (MOLT-4 leukemia) was greater than 100 µM, the TGI (TK-10 renal) was greater than 100 µM and the TGI (A549 NSCLC) was greater than 100 µM. It also gave a TGI (UACC-62 melanoma) greater than 100 µM, a TGI (NCI-H226 lung) greater than 100 µM and a TGI (DMS 273 small cell lung) greater than 100 µM. It also gave a TGI (OVCAR-3 ovarian) greater than 100 µM, a TGI (SF-268 CNS) greater than 100 µM and a TGI (HCT-116 colon) greater than 100 µM. It also gave a TGI (COLO 205 colon) greater than 100 µM, a TGI (OVCAR-8 ovarian) greater than 100 µM and a TGI (SK-MEL-2 melanoma) greater than 100 µM. For the same compound, the TGI (HCT-15 colon) was greater than 100 µM, the TGI (NCI-H460 lung) was greater than 100 µM and the TGI (MALME-3M melanoma) was greater than 100 µM. The TGI (EKVX NSCLC) was greater than 100 µM, the TGI (SNB-75 CNS) was greater than 100 µM and the TGI (ACHN renal) was greater than 100 µM. For the same compound, the TGI (M14 melanoma) was greater than 100 µM, the TGI (U251 CNS) was greater than 100 µM and the TGI (CCRF-CEM leukemia) was greater than 100 µM. It also gave a TGI (XF 498 CNS) greater than 100 µM, a TGI (HCC-2998 colon) greater than 100 µM and a TGI (DMS 114 small cell lung) greater than 100 µM. The TGI (RXF 393 renal) was greater than 100 µM, the TGI (KM20L2 colon) was greater than 100 µM and the TGI (SF-539 CNS) was greater than 100 µM. It also gave a TGI (NCI-H23 lung) greater than 100 µM, a TGI (SNB-19 CNS) greater than 100 µM and a TGI (OVCAR-4 ovarian) greater than 100 µM. For the same compound, the TGI (UO-31 renal) was greater than 100 µM, the TGI (RPMI-8226 leukemia) was greater than 100 µM and the TGI (IGROV1 ovarian) was greater than 100 µM. It also gave a TGI (UACC-257 melanoma) greater than 100 µM, a TGI (SR leukemia) greater than 100 µM and a TGI (HOP-62 NSCLC) greater than 100 µM. The TGI (A498 renal) was greater than 100 µM, the TGI (786-0 renal) was greater than 100 µM and the TGI (SN12C renal) was greater than 100 µM. It also gave a TGI (SF-295 CNS) greater than 100 µM, a TGI (SW-620 colon) greater than 100 µM and a TGI (K-562 leukemia) greater than 100 µM. It also gave a TGI (SK-MEL-28 melanoma) greater than 100 µM, a TGI (LXFL 529 NSCLC) greater than 100 µM and a TGI (HL-60(TB) leukemia) greater than 100 µM. The TGI (LOX IMVI melanoma) was greater than 100 µM.
